{"source": "patent US10626115B2", "about": "“Fused pyrimidinone and triazinone derivatives containing bridged nitrogen, their process of preparation and their therapeutic uses as antifungal and/or antiparasitic agents” (UNIVERSITE DE NANTES, priority 2015, dated 2020)", "key": {"[1]": {"test_system": "A. fumigatus susceptible strain ASFU38A", "assay": "Antifungal susceptibility, spectrofluorimetric microdilution, ASFU38A", "format": "cell-based, Aspergillus fumigatus", "details": "Aspergillus fumigatus, read-out: MIC values ASFU38A", "procedure": "(§1) Eleven strains of A. fumigatus with various itraconazole susceptibility were used: • Five susceptible strains: ASFU7, ASFU35A, ASFU38A, ASFU76 and ASFU78. • Six itraconazole-resistant strains: ASFU77 (erg11 mutation), ASFU13, ASFU17, ASFU19, ASFU20, ASFU23.\n(§2) Antifungal susceptibility was evaluated with a spectrofluorimetric microdilution method. MIC was the concentration that was able to inhibit 80% of fluorescence measured in the control wells."}, "[2]": {"test_system": "A. fumigatus susceptible strain ASFU76", "assay": "Antifungal susceptibility, spectrofluorimetric microdilution, ASFU76", "format": "cell-based, Aspergillus fumigatus", "details": "Aspergillus fumigatus, read-out: MIC values ASFU76", "procedure": "as §1, §2"}, "[3]": {"test_system": "Candida albicans strain (CAAL93)", "assay": "Murine systemic candidiasis", "format": "in vivo", "details": "neutropenic Swiss mice, CAAL93 i.v., 10 mg/kg per os once a day for 5 days; for survival compared with the non-treated group: 28 days (compound 51, 14 days); for survival compared with the non-treated group / activity on fungal burden of the kidney compared to FLC: p<0.05; for fungal burden of the kidney: p<0.05 (compound 51 p<0.001)", "procedure": "(§3) Transiently neutropenic female Swiss mice were used for experiments on systemic candidiasis and invasive aspergillosis.\nMice were inoculated intravenously with a Candida albicans strain (CAAL93). Treatment was administrated once a day (10 mg/kg per os) for 5 days. […] Fungal burden of the kidney was evaluated in dead animals during the experimentation or in animals sacrificed at the end of the experimentation."}, "[4]": {"test_system": "promastigote stage of a Leishmania mexicana strain", "assay": "Anti-Trypanosomatidae activity, promastigote stage, spectrofluorimetric microdilution", "format": "cell-based", "details": "for IC50: Leishmania mexicana, promastigote stage, 50% of control growth, read-out: L. mexicana (IC50 μM)", "procedure": "Compounds were evaluated on the promastigote stage of a Leishmania mexicana strain using a spectrofluorimetric microdilution method. Inhibitory concentration 50 (IC50) was the concentration that inhibited 50% of the control growth."}, "[5]": {"test_system": "fluconazole-resistant C. albicans strain CAAL111 (efflux pump)", "assay": "microbe, parasite or virus in culture", "format": "cell-based", "details": "Candida albicans, read-out: MIC values CAAL111", "procedure": "(§4) Eight strains of Candida spp. with various azoles-susceptibilities were used: • One fluconazole-susceptible C. albicans strain: CAAL93 • Two fluconazole-resistant C. albicans strains: CAAL111 (efflux pump) and CAAL117 (erg11 mutations+voriconazole-resistant) • five fluconazole-resistant Candida non albicans strains: C. krusei (CAKR7, CAKR8), C. glabrata (CAGL2), C. parapsilosis s.l. (CAPA1, CAPA2).\n(§5) Antifungal susceptibility was evaluated with a spectrofluorimetric microdilution method."}, "[6]": {"test_system": "fluconazole-resistant C. parapsilosis s.l. (CAPA2)", "assay": "microbe, parasite or virus in culture", "format": "cell-based", "details": "Lodderomyces parapsilosis, read-out: MIC values CAPA2", "procedure": "as §4, §5"}, "[7]": {"test_system": "fluconazole-resistant C. krusei (CAKR7)", "assay": "microbe, parasite or virus in culture", "format": "cell-based", "details": "Pichia kudriavzevii, read-out: MIC values CAKR7", "procedure": "as §4, §5"}, "[8]": {"test_system": "fluconazole-resistant C. parapsilosis s.l. (CAPA1)", "assay": "microbe, parasite or virus in culture", "format": "cell-based", "details": "Lodderomyces parapsilosis, read-out: MIC values CAPA1", "procedure": "as §4, §5"}, "[9]": {"test_system": "fluconazole-resistant C. glabrata (CAGL2)", "assay": "microbe, parasite or virus in culture", "format": "cell-based", "details": "Nakaseomyces glabratus, read-out: MIC values CAGL2", "procedure": "as §4, §5"}, "[10]": {"test_system": "fluconazole-resistant C. krusei (CAKR8)", "assay": "microbe, parasite or virus in culture", "format": "cell-based", "details": "Pichia kudriavzevii, read-out: MIC values CAKR8", "procedure": "as §4, §5"}, "[11]": {"test_system": "A. fumigatus susceptible strain ASFU35A", "assay": "Antifungal susceptibility, spectrofluorimetric microdilution, ASFU35A", "format": "cell-based, Aspergillus fumigatus", "details": "Aspergillus fumigatus, read-out: MIC values ASFU35A", "procedure": "as §1, §2"}, "[12]": {"test_system": "A. fumigatus susceptible strain ASFU78", "assay": "Antifungal susceptibility, spectrofluorimetric microdilution, ASFU78", "format": "cell-based, Aspergillus fumigatus", "details": "Aspergillus fumigatus, read-out: MIC values ASFU78", "procedure": "as §1, §2"}, "[13]": {"assay": "Cytotoxicity on HeLa cells", "format": "cell-based, Human", "details": "human, 50% inhibition of control fluorescence", "procedure": "Hela Human cell line was used in view to evaluate cytotoxicity. It was evaluated with a spectrofluorimetric microdilution method. IC50 was the concentration that was able to inhibit 50% of fluorescence measured in the control wells."}, "[14]": {"test_system": "fluconazole-susceptible C. albicans strain: CAAL93", "assay": "Antifungal susceptibility, spectrofluorimetric microdilution, CAAL93", "format": "cell-based", "details": "Candida albicans, read-out: MIC values CAAL93", "procedure": "as §4, §5"}, "[15]": {"test_system": "Aspergillus fumigatus (ASFU7) spores", "assay": "Murine invasive aspergillosis", "format": "in vivo", "details": "neutropenic Swiss mice, ASFU7 spores i.v., 10 mg/kg per os once a day for 5 days", "procedure": "as §3\nMice were inoculated intravenously with Aspergillus fumigatus (ASFU7) spores.\nTreatment was administrated once a day (10 mg/kg per os) for 5 days. […] Fungal burden of the kidney was evaluated in dead animals during the experimentation or in animals sacrificed at the end of the experimentation."}, "[16]": {"test_system": "A. fumigatus itraconazole-resistant strain ASFU77 (erg11 mutation)", "assay": "Antifungal susceptibility, spectrofluorimetric microdilution, ASFU77", "format": "cell-based, Aspergillus fumigatus", "details": "Aspergillus fumigatus, read-out: MIC values ASFU77", "procedure": "as §1, §2"}, "[17]": {"test_system": "A. fumigatus susceptible strain ASFU7", "assay": "Antifungal susceptibility, spectrofluorimetric microdilution, ASFU7", "format": "cell-based, Aspergillus fumigatus", "details": "Aspergillus fumigatus, read-out: MIC values ASFU7", "procedure": "as §1, §2"}}}
{"smiles": "C[C@@H](n1ccc2nc(-c3ccc(C#N)cc3)cn2c1=O)[C@](O)(Cn1cncn1)c1ccc(F)cc1F", "note": "[Compound 34, 6-[(1R,2R)-2-(2,4-Difluorophenyl)-2-hydroxy-1-methyl-3-(1H-1,2,4-triazol-1-yl)propyl]-2-(4-cyanophenyl)imidazo[1,2-c]pyrimidin-5-one]", "values": [{"measurement": "MIC", "setting": "[1]", "value": "12.6 ± 4.05", "unit": "µg/mL"}, {"measurement": "MIC", "setting": "[2]", "value": "6.44 ± 0.17", "unit": "µg/mL"}, {"measurement": "survival efficiency compared with FLC", "setting": "[3]", "value": "significantly more efficient than FLC"}, {"measurement": "survival compared with the non-treated group", "setting": "[3]", "value": "significant longer survival"}, {"measurement": "activity on fungal burden of the kidney compared to FLC", "setting": "[3]", "value": "significantly higher when compared to FLC"}, {"measurement": "fungal burden of the kidney", "setting": "[3]", "value": "significantly decreased"}, {"measurement": "effectiveness against the promastigote stage of L. Mexicana, in words", "setting": "[4]", "value": "effective"}, {"measurement": "IC50", "setting": "[4]", "value": "2.8 ± 0.2", "unit": "µM"}, {"measurement": "MIC", "setting": "[5]", "value": "0.003 ± 0.001", "unit": "µg/mL"}, {"measurement": "MIC", "setting": "[6]", "value": "0.002 ± 0.001", "unit": "µg/mL"}, {"measurement": "MIC", "setting": "[7]", "value": "0.45 ± 0.31", "unit": "µg/mL"}, {"measurement": "MIC", "setting": "[8]", "value": "0.002 ± 0.001", "unit": "µg/mL"}, {"measurement": "MIC", "setting": "[9]", "value": "0.64 ± 0.27", "unit": "µg/mL"}, {"measurement": "MIC", "setting": "[10]", "value": "0.06 ± 0.01", "unit": "µg/mL"}, {"measurement": "MIC", "setting": "[11]", "value": "6.27 ± 0.3", "unit": "µg/mL"}, {"measurement": "MIC", "setting": "[12]", "value": "5.98 ± 0.62", "unit": "µg/mL"}, {"measurement": "IC50", "setting": "[13]", "value": 25, "unit": "µM"}, {"measurement": "MIC", "setting": "[14]", "value": "< 0.001", "unit": "µg/mL"}, {"measurement": "survival", "setting": "[15]; 14 days, p<0.01", "value": "did survive significantly longer"}, {"measurement": "activity compared with compounds 29 and 35", "setting": "[15]; p<0.05", "value": "significantly more active than compounds 29 and 35"}, {"measurement": "fungal burden of the kidney", "setting": "[15]; p<0.05", "value": "significantly reduced"}, {"measurement": "MIC", "setting": "[16]", "value": "38.4 ± 13.1", "unit": "µg/mL"}, {"measurement": "MIC", "setting": "[17]", "value": "2.43 ± 0.19", "unit": "µg/mL"}]}
{"smiles": "C[C@@H](n1ccc2nc(-c3ccccc3)cn2c1=O)[C@](O)(Cn1cncn1)c1ccc(F)cc1F", "note": "[Compound 29, 6-[(1R,2R)-2-(2,4-Difluorophenyl)-2-hydroxy-1-methyl-3-(1H-1,2,4-triazol-1-yl)propyl]-2-phenylimidazo[1,2-c]pyrimidin-5-one]", "values": [{"measurement": "MIC", "setting": "[1]", "value": "6.86 ± 1", "unit": "µg/mL"}, {"measurement": "MIC", "setting": "[2]", "value": "6.66 ± 0.53", "unit": "µg/mL"}, {"measurement": "survival compared with the non-treated group", "setting": "[3]", "value": "significant longer survival"}, {"measurement": "activity on fungal burden of the kidney compared to FLC", "setting": "[3]", "value": "significantly higher when compared to FLC"}, {"measurement": "fungal burden of the kidney", "setting": "[3]", "value": "significantly decreased"}, {"measurement": "effectiveness against the promastigote stage of L. Mexicana, in words", "setting": "[4]", "value": "effective"}, {"measurement": "IC50", "setting": "[4]", "value": "2.8 ± 0.3", "unit": "µM"}, {"measurement": "MIC", "setting": "[5]", "value": "0.005 ± 0.002", "unit": "µg/mL"}, {"measurement": "MIC", "setting": "[6]", "value": "0.007 ± 0.004", "unit": "µg/mL"}, {"measurement": "MIC", "setting": "[7]", "value": "1.28 ± 0.33", "unit": "µg/mL"}, {"measurement": "MIC", "setting": "[8]", "value": "0.009 ± 0.003", "unit": "µg/mL"}, {"measurement": "MIC", "setting": "[9]", "value": "0.15 ± 0.01", "unit": "µg/mL"}, {"measurement": "MIC", "setting": "[10]", "value": "0.07 ± 0.02", "unit": "µg/mL"}, {"measurement": "MIC", "setting": "[11]", "value": "6.36 ± 1.42", "unit": "µg/mL"}, {"measurement": "MIC", "setting": "[12]", "value": "5.93 ± 0.72", "unit": "µg/mL"}, {"measurement": "IC50", "setting": "[13]", "value": 25, "unit": "µM"}, {"measurement": "MIC", "setting": "[14]", "value": "< 0.001", "unit": "µg/mL"}, {"measurement": "MIC", "setting": "[16]", "value": "28.2 ± 21.9", "unit": "µg/mL"}, {"measurement": "MIC", "setting": "[17]", "value": "2.49 ± 0.13", "unit": "µg/mL"}]}
